In general, IC50 refers to the concentration at which inhibition is half-maximal.

Structures are written as SMILES. A value given as a limit tells only on which side of the number the result lay.

For the first test, the target named is T1, Pol theta (1-899) (Homo sapiens, UniProt O75417).
T1 construct: Pol theta (1-899) (5 nM) in assay buffer
T1 sequence (O75417 1-899): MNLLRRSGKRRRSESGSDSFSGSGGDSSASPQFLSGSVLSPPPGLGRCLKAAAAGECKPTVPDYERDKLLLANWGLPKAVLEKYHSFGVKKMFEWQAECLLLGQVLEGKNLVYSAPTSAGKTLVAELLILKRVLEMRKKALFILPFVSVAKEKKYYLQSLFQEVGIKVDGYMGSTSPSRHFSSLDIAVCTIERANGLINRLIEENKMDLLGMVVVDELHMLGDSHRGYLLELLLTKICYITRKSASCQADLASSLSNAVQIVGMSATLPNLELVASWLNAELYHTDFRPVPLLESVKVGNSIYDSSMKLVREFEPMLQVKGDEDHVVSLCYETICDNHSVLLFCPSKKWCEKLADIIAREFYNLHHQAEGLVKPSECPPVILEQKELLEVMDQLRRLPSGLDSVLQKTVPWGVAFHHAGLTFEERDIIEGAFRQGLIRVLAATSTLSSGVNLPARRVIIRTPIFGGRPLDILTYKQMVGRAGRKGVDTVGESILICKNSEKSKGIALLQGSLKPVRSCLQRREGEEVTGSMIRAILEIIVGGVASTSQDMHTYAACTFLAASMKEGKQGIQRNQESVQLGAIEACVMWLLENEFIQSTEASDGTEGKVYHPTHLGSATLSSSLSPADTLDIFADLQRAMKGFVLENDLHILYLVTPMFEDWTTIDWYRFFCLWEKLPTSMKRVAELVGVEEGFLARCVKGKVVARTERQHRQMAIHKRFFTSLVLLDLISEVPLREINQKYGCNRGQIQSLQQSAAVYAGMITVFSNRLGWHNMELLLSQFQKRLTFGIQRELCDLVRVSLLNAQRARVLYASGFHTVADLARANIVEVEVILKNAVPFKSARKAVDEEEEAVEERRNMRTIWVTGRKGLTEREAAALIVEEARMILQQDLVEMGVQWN
The test can be described thus: Pol theta ATPase activity, NADH oxidation-coupled enzymatic assay (ATPase NADH coupling: Standard Screening: hPolQ). Type of test: biochemical. The following applies: Pol theta (1-899) 5 nM, NADH oxidation-coupled ATPase assay; compounds of Table 3. The essentials: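 NADH-coupled ATPase readout: 5 nM Pol theta (1-899) preincubated 15 min with 10-point compound series in Tris pH 7.80, KCl, MgCl2, DTT, BSA, Tween, glycerol, then 100 μM ATP, 300 nM 50-mer poly-dT ssDNA, NADH, PEP, LDH and PK added (stock levels). A340 followed 60 min; slopes fit four-parameter for IC50.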
For the compound `COc1cnc(Cl)cc1-c1cc(C)ncc1C(=O)Nc1nnc(OC2CCN(CC(F)(F)F)CC2)s1` [Example 278, 2′-chloro-5′-methoxy-6-methyl-N-(5-((1-(2,2,2-trifluoroethyl)piperidin-4-yl)oxy)-1,3,4-thiadiazol-2-yl)-[4,4′-bipyridine]-3-carboxamide], the half-maximal inhibitory concentration (IC50) was in the range of 200 to 500 nM.

The compound `COc1nnc(NC(=O)c2cnc(C)cc2-c2ccc(-c3ccccc3)cc2)s1` [Example 370, 4-{[1,1′-biphenyl]-4-yl}-N-(5-methoxy-1,3,4-thiadiazol-2-yl)-6-methylpyridine-3-carboxamide] came in with a half-inhibitory concentration (IC50) of 1000 to 10000 nM.

Consider `COc1nnc(NC(=O)c2ccccc2-c2cc(Cl)ncc2OC)s1` [Example 291, 2-(2-chloro-5-methoxypyridin-4-yl)-N-(5-methoxy-1,3,4-thiadiazol-2-yl)benzamide], for which the IC50 was ≤ 200 nM.

`COc1cnc(Cl)cc1-c1cc(C)ncc1C(=O)Nc1nnc(O[C@@H]2CC[C@@]23CCOC3)s1` (racemic) [Example 295, rac-N-(5-(((1R,4S)-6-oxaspiro[3.4]octan-1-yl)oxy)-1,3,4-thiadiazol-2-yl)-2′-chloro-5′-methoxy-6-methyl-[4,4′-bipyridine]-3-carboxamide]: the IC50 is ≤ 200 nM.

With `COc1cnc(Cl)cc1-c1cc(C)ncc1C(=O)Nc1nnc(O[C@@H]2C[C@@H]3C[C@H]2C[C@H]3O)s1` (single isomer, unassigned) [Example 263], the IC50 is ≤ 200 nM.

The compound `COc1nnc(NC(=O)c2nnc(C)cc2-c2cc(Cl)ncc2OC)s1` [Example 294, 4-(2-chloro-5-methoxypyridin-4-yl)-N-(5-methoxy-1,3,4-thiadiazol-2-yl)-6-methylpyridazine-3-carboxamide] displayed an IC50 of 200 to 500 nM.

In the case of `COc1cnc(Cl)c(F)c1-c1cc(C)ncc1C(=O)Nc1nnc(O[C@H]2CC[C@@H](CO)CC2)s1` [Example 245, 2′-chloro-3′-fluoro-N-(5-(((1s,4s)-4-(hydroxymethyl)cyclohexyl)oxy)-1,3,4-thiadiazol-2-yl)-5′-methoxy-6-methyl-[4,4′-bipyridine]-3-carboxamide], the IC50 is ≤ 200 nM.

`CCc1cc(C(=O)Nc2nnc(OC)s2)c(-c2cc(Cl)ncc2OC)cn1` [Example 270, 2′-chloro-6-ethyl-5′-methoxy-N-(5-methoxy-1,3,4-thiadiazol-2-yl)-[3,4′-bipyridine]-4-carboxamide] had an IC50 of 200 to 500 nM.

With `COc1nnc(NC(=O)c2cnc(C)cc2-c2cccc(OC)c2F)s1` [Example 446, 4-(2-fluoro-3-methoxyphenyl)-N-(5-methoxy-1,3,4-thiadiazol-2-yl)-6-methylpyridine-3-carboxamide], the IC50 was 1000 to 10000 nM.

In turn, `COc1nnc(NC(=O)c2cnc(C)cc2-c2ccc(C(=O)O)cc2)s1` [Example 366, 4-(5-((5-methoxy-1,3,4-thiadiazol-2-yl)carbamoyl)-2-methylpyridin-4-yl)benzoic acid] showed a concentration for half-maximal inhibition (IC50) of 1000 to 10000 nM.

Compound `COc1nnc(NC(=O)c2cnc(C)cc2-c2cnc3[nH]ncc3c2)s1` [Example 357, N-(5-methoxy-1,3,4-thiadiazol-2-yl)-6-methyl-4-(1H-pyrazolo[3,4-b]pyridin-5-yl)nicotinamide] gave a concentration for half-maximal inhibition (IC50) of 1000 to 10000 nM.

The test is the same for the next values; noted with them: Table 4; Pol theta (1-899) 5 nM, ATP, dT50 ssDNA.
Take `COc1nnc(NC(=O)c2cnc(CO)cc2-c2cc(Cl)ncc2OC)s1` [Example 64, 2′-chloro-6-(hydroxymethyl)-5′-methoxy-N-(5-methoxy-1,3,4-thiadiazol-2-yl)-(4,4′-bipyridine)-3-carboxamide]: the half-inhibitory concentration (IC50) is ≤ 200 nM.

Compound `COc1nnc(NC(=O)c2cnc(C)cc2-c2cc(N)ncc2OC)s1` [Example 73, 2′-amino-5′-methoxy-N-(5-methoxy-1,3,4-thiadiazol-2-yl)-6-methyl-(4,4′-bipyridine)-3-carboxamide] yielded an IC50 of 500 to 1000 nM.

With `COc1cnc(Cl)cc1-c1cc(C)ncc1C(=O)Nc1nnc(OC2CCC2)s1` [Example 11, 2′-chloro-N-(5-cyclobutoxy-1,3,4-thiadiazol-2-yl)-5′-methoxy-6-methyl-(4,4′-bipyridine)-3-carboxamide], the IC50 is ≤ 200 nM.

As for `COc1nnc(NC(=O)c2cnc(C)cc2-c2cc(Cl)ccc2OC)s1` [Example 9, 4-(5-chloro-2-methoxyphenyl)-N-(5-methoxy-1,3,4-thiadiazol-2-yl)-6-methylnicotinamide], the half-inhibitory concentration (IC50) is ≤ 200 nM.

Turning to `COc1nnc(NC(=O)c2cnc(C)cc2-c2ccccc2OC)s1` [Example 54, N-(5-methoxy-1,3,4-thiadiazol-2-yl)-4-(2-methoxyphenyl)-6-methylnicotinamide], the concentration for half-maximal inhibition (IC50) was in the range of 500 to 1000 nM.

As to `COc1nnc(NC(=O)c2cnc(C)cc2-c2c(C)n[nH]c2C)s1` [Example 40, 4-(3,5-dimethyl-1H-pyrazol-4-yl)-N-(5-methoxy-1,3,4-thiadiazol-2-yl)-6-methylnicotinamide], the IC50 lay within 1000 to 10000 nM.

As for `COc1nnc(NC(=O)c2cnc(C)cc2-c2cc(C(F)F)ncc2OC)s1` [Example 70, 2′-(difluoromethyl)-5′-methoxy-N-(5-methoxy-1,3,4-thiadiazol-2-yl)-6-methyl-(4,4′-bipyridine)-3-carboxamide], the IC50 is ≤ 200 nM.

Staying with this test, now noted: Table 5; Pol theta (1-899) 5 nM, ATP, dT50 ssDNA.
In the case of `COc1cnc(Cl)c(F)c1-c1cc(C)ncc1C(=O)Nc1nnc(O[C@H]2C[C@@H](O)C2)s1` [Example 129, 2′-chloro-3′-fluoro-N-(5-((1s,3s)-3-hydroxycyclobutoxy)-1,3,4-thiadiazol-2-yl)-5′-methoxy-6-methyl-(4,4′-bipyridine)-3-carboxamide], the IC50 is ≤ 200 nM.

`COc1cnc(C)c(F)c1-c1cc(C)ncc1C(=O)Nc1nnc(O[C@H]2CC[C@@](C)(O)CC2)s1` (single isomer, unassigned) [Example 221, 3′-fluoro-N-(5-(((1s,4s)-4-hydroxy-4-methylcyclohexyl)oxy)-1,3,4-thiadiazol-2-yl)-5′-methoxy-2′,6-dimethyl-(4,4′-bipyridine)-3-carboxamide]: the 50% inhibitory concentration (IC50) was ≤ 200 nM.

As for `COc1cnc(C)c(F)c1-c1cc(C)ncc1C(=O)Nc1nnc(O[C@@H]2C[C@H]3CC[C@@H]2O3)s1` (single isomer, unassigned) [Example 218], the IC50 was ≤ 200 nM.

Take `COc1cnc(Cl)cc1-c1cc(C)ncc1C(=O)Nc1nnc(O[C@H]2CO[C@H](C)C2)s1` (single isomer, unassigned) [Example 192]: the IC50 was ≤ 200 nM.

With `COc1nnc(NC(=O)c2cnc(C)cc2-c2cc(Cl)c([S+](C)[O-])cc2OC)s1` (centres unmarked) [Example 231, 4-(5-chloro-2-methoxy-4-(methylsulfinyl)phenyl)-N-(5-methoxy-1,3,4-thiadiazol-2-yl)-6-methylnicotinamide], the 50% inhibitory concentration (IC50) is ≤ 200 nM.

Take `COc1cnc(Cl)cc1-c1cc(C)ncc1C(=O)Nc1nnc(O[C@H]2CCC23COC3)s1` (single isomer, unassigned) [Example 136]: the IC50 is ≤ 200 nM.

For `COc1cnc(Cl)c(F)c1-c1cc(C)ncc1C(=O)Nc1nnc(O[C@H]2CC[C@@](C)(O)CC2)s1` (single isomer, unassigned) [Example 171, 2′-chloro-3′-fluoro-N-(5-(((1s,4s)-4-hydroxy-4-methylcyclohexyl)oxy)-1,3,4-thiadiazol-2-yl)-5′-methoxy-6-methyl-(4,4′-bipyridine)-3-carboxamide], the half-maximal inhibitory concentration (IC50) is ≤ 200 nM.

Take `COc1cnc(Cl)cc1-c1cc(C)ncc1C(=O)Nc1nnc(O[C@H]2COC(C)(C)C2)s1` (single isomer, unassigned) [Example 131]: the IC50 is ≤ 200 nM.

Source of the values: patent US20240287080A1 (IDEAYA Biosciences Inc., priority 2021, published 2024).
